Test results from patent publication US20130217664A1, “NOVEL COMPOUNDS USEFUL FOR THE TREATMENT OF DEGENERATIVE AND INFLAMMATORY DISEASES” (priority 2012, published 2013).
Like-named read-outs stand apart in the source and are kept apart here. Each block holds one compound with its values, some of them ahead of it.

Columns and labels:
human JAK1 = target: T1, human JAK1 (Homo sapiens, UniProt P23458); assay: JAK1 inhibition assay (polyGT substrate / Ulight-JAK1 peptide); format: biochemical; conditions: recombinant human JAK1 catalytic domain; polyGT or Ulight-JAK1 peptide assay
T1 construct: catalytic domain, amino acids 866-1154; catalog number PV4774; purchased Invitrogen PV4774
T1 sequence (P23458 866-1154): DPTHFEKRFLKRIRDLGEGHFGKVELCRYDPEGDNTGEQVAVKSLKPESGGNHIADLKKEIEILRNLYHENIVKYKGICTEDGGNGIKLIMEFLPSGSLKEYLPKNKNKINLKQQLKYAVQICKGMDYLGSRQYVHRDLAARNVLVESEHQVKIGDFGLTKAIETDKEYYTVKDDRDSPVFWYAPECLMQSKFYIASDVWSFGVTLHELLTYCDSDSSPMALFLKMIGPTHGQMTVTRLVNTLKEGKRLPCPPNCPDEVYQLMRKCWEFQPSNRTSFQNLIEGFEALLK
Outline: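 Two formats. PolyGT radiometric: 45 min at 30 °C, stopped with phosphoric acid, counted as cpm. Ulight-JAK1 peptide: 60 min at room temperature, stopped with Eu-anti-phosphotyrosine/EDTA, read as RFU. Percent inhibition normalised to vehicle and 10 μM staurosporine.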

human JAK3 = target: T2, human JAK3 (Homo sapiens, UniProt P52333); assay: JAK3 inhibition assay; format: biochemical; conditions: recombinant human JAK3 catalytic domain; polyGT substrate
T2 construct: catalytic domain (amino acids 781-1124; catalog number PV3855); purchased Invitrogen PV3855
T2 sequence (P52333 781-1124): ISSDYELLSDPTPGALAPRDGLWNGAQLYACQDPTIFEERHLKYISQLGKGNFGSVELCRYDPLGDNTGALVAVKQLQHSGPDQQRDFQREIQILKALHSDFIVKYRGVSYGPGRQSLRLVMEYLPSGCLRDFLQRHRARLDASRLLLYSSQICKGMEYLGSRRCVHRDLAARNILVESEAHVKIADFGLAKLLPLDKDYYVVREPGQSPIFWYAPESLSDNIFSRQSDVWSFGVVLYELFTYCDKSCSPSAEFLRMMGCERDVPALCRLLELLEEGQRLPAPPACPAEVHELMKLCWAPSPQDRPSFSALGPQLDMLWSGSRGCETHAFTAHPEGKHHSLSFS
Outline: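 Radiometric kinase assay: 0.5 ng JAK3 with 2.5 μg polyGT in Tris pH 7.5/MgCl2 buffer, 1 μM ATP plus 0.25 μCi 33P-γ-ATP, 1% DMSO, 45 min at 30 °C, stopped with phosphoric acid.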

human TYK2 = target: T3, human TYK2 (Homo sapiens, UniProt P29597); assay: TYK2 inhibition assay; format: biochemical; conditions: recombinant human TYK2 catalytic domain, polyGT substrate
T3 construct: catalytic domain (amino acids 871-1187; catalog number 08-147); purchased Carna Biosciences 08-147
T3 sequence (P29597 871-1187): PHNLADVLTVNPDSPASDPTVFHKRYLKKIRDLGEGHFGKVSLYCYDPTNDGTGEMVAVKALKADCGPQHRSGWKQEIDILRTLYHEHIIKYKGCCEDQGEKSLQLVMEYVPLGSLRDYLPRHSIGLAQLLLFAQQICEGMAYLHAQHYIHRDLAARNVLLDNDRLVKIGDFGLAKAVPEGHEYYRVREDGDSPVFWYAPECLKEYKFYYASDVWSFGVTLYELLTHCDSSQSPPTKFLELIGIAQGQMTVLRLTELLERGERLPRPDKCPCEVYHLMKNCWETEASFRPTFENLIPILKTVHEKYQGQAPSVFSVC
Outline: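 Radiometric kinase reaction run 90 min at 30 °C, stopped with phosphoric acid, washed and scintillation-counted.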

[1] = system: pSTAT1(2)-luciferase reporter in HeLa cells triggered with human OSM; assay: JAK-STAT signalling assay; format: cell-based; conditions: read-out: JAK-STAT IC50
Method: JAK-STAT Signalling Assay
HeLa cells were maintained in Dulbecco's Modified Eagle's Medium (DMEM) containing 10% heat inactivated fetal calf serum, 100 U/mL penicillin and 100 μg/mL streptomycin. HeLa cells were used at 70% confluence for transfection. 20,000 cells in 87 μL cell culture medium were transiently transfected with 40 ng pSTAT1(2)-luciferase reporter (Panomics), 8 ng of LacZ reporter as internal control reporter and 52 ng of pBSK using 0.32 μL Jet-PEI (Polyplus) as transfection reagent per well in 96-well plate format. After overnight incubation at 37° C., 5% CO2, transfection medium was removed. 81 μL of DMEM+1.5% heat inactivated fetal calf serum was added. 9 μL compound at 10× concentration was added for 60 min and then 10 μL of human OSM (Peprotech) at 33 ng/mL final concentration.
After overnight incubation at 37° C., 5% CO2 cells were lysed by adding 100 μL lysis buffer/well (PBS, 0.9 mM CaCl2, 0.5 mM MgCl2, 10% Trehalose, 0.05% Tergitol NP9, 0.3% BSA).
40 μL of cell lysate was used to read β-galactosidase activity by adding 180 μL β-Gal solution (30 μL ONPG 4 mg/mL+150 μL β-Galactosidase buffer (0.06 M Na2HPO4, 0.04 M NaH2PO4, 1 mM MgCl2)) for 20 min.
Luciferase activity was measured using 40 μL cell lysate plus 40 μL of Steadylite as described by the manufacturer (Perkin Elmer), on the Envision (Perkin Elmer).
The positive and negative controls were used to calculate z′ and ‘percent inhibition’ (PIN) values.
Percentage inhibition=((fluorescence determined in the presence of vehicle−fluorescence determined for sample with test compound present)divided by(fluorescence determined in the presence of vehicle−fluorescence determined for sample without trigger))*100.
PIN values were plotted for compounds tested in dose-response and EC50 values were derived.

human JAK2 = target: T4, human JAK2 (Homo sapiens, UniProt O60674); assay: JAK2 inhibition assay (polyGT substrate / Ulight-JAK1 peptide); format: biochemical; conditions: recombinant human JAK2 catalytic domain; polyGT or Ulight-JAK1 peptide assay
T4 construct: catalytic domain (amino acids 808-1132; catalog number PV4210); GST; purchased Invitrogen PV4210
T4 sequence (O60674 808-1132): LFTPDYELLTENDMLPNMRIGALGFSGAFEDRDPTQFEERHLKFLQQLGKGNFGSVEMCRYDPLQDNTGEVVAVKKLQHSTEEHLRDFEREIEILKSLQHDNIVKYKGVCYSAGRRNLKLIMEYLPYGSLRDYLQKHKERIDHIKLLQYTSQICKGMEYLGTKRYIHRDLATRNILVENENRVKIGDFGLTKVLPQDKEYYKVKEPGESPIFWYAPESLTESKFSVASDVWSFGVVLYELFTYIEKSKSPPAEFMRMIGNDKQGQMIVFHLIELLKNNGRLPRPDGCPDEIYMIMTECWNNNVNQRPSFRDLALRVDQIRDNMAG
Outline: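 Radiometric: 0.025 mU JAK2 with 2.5 μg polyGT, 1 μM ATP plus ^33P-ATP in MOPS pH 7.5 buffer, 1% DMSO, 90 min at 30° C.; filter counting. Alternative TR-FRET format with Ulight-JAK1 peptide, 60 min at room temperature, Eu-anti-phosphotyrosine detection.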

[2] = Homo sapiens, HeLa, HeLa cells, pSTAT1(2)-luciferase reporter, human OSM 33 ng/mL
[3] = HeLa cells, pSTAT1(2)-luciferase reporter, human OSM 33 ng/mL

Structure (SMILES): CCc1cc(C2=CCN(S(=O)(=O)CC#N)CC2)ccc1N(C)c1cc2c(cn1)ncn2C [Compound 247, 2-(4-(3-ethyl-4-(methyl(1-methyl-1H-imidazo[4,5-c]pyridin-6-yl)amino)phenyl)-5,6-dihydropyridin-1(2H)-ylsulfonyl)acetonitrile]
- IC50 (human JAK1): 0.01 to 100 nM
- IC50 (human JAK3): 0.01 to 100 nM
- IC50 (human TYK2): 0.01 to 100 nM
- IC50 [1, 2]: 1 to 500 nM

Structure (SMILES): COc1cc(C2CCN(C(=O)CC#N)CC2)ncc1N(C)c1cc2c(cn1)ncn2C [Compound 265]
- IC50 (human JAK1): 501 to 1000 nM
- IC50 (human JAK3): > 1000 nM
- IC50 (human TYK2): > 1000 nM
- IC50 [1, 3]: > 1000 nM

Structure (SMILES): CCc1cc(-c2nnc(N)s2)ccc1N(C)c1cc2c(cn1)ncn2C [Compound 193, 5-(3-Ethyl-4-(methyl(1-methyl-1H-imidazo[4,5-c]pyridin-6-yl)amino)phenyl)-1,3,4-thiadiazol-2-amine]
- IC50 [1, 2]: > 1000 nM

Structure (SMILES): CCc1cc(CNC(=O)NC#N)ccc1N(C)c1cc2c(cn1)ncn2C [Compound 258, 1-{3-Ethyl-4-[methyl-(1-methyl-1H-imidazo[4,5-c]pyridin-6-yl)-amino]-benzyl}-3-cyano-urea]
- IC50 (human JAK1): 0.01 to 100 nM
- IC50 (human JAK3): 101 to 500 nM
- IC50 (human TYK2): 101 to 500 nM
- IC50 ([1]; Homo sapiens, HeLa): > 1000 nM

Structure (SMILES): CCc1cc(-c2ccc(C)nc2)ccc1N(C)c1cc2c(cn1)ncn2C [Compound 131, N-(2-ethyl-4-(6-methylpyridin-3-yl)phenyl)-N,1-dimethyl-1H-imidazo[4,5-c]pyridin-6-amine]
- IC50 (human JAK1): 0.01 to 100 nM
- IC50 (human JAK3): > 1000 nM
- IC50 (human TYK2): 101 to 500 nM
- IC50 [1, 2]: 501 to 1000 nM

Structure (SMILES): CCc1cc(C2=CCN(C(=O)N3CCC3)CC2)ccc1N(C)c1cc2c(cn1)ncn2C [Compound 205, azetidin-1-yl(4-(3-ethyl-4-(methyl(1-methyl-1H-imidazo[4,5-c]pyridin-6-yl)amino)phenyl)-5,6-dihydropyridin-1(2H)-yl)methanone]
- IC50 (human JAK1): 0.01 to 100 nM
- IC50 (human JAK3): 101 to 500 nM
- IC50 (human TYK2): 0.01 to 100 nM
- IC50 [1, 2]: 1 to 500 nM

Structure (SMILES): CCc1cc(CNC(=O)CC#N)ccc1N(C)c1cc2c(cn1)ncn2C [Compound 255, 2-cyano-N-(3-ethyl-4-(methyl(1-methyl-1H-imidazo[4,5-c]pyridin-6-yl)amino)benzyl)acetamide]
- IC50 (human JAK1): 0.01 to 100 nM
- IC50 (human JAK3): 101 to 500 nM
- IC50 (human TYK2): 101 to 500 nM
- IC50 [1, 2]: > 1000 nM

Structure (SMILES): CCc1nc(C2CN(C(=O)OC(C)(C)C)C2)cnc1N(C)c1cc2c(cn1)ncn2C [Compound 457, 3-{6-Ethyl-5-[methyl-(1-methyl-1H-imidazo[4,5-c]pyridin-6-yl)-amino]-pyrazin-2-yl}-azetidine-1-carboxylic acid tert-butyl ester]
- IC50 (human JAK1): > 1000 nM
- IC50 (human JAK2): > 1000 nM
- IC50 (human JAK3): > 1000 nM
- IC50 (human TYK2): > 1000 nM

Structure (SMILES): CCc1cc(C(C#N)N2CCOCC2)ncc1N(C)c1cc2c(cn1)ncn2C (stereo not shown) [Compound 444, {4-Ethyl-5-[methyl-(1-methyl-1H-imidazo[4,5-c]pyridin-6-yl)-amino]-pyridin-2-yl}-morpholin-4-yl-acetonitrile]
- IC50 (human JAK1): 0.01 to 100 nM
- IC50 (human JAK2): 0.01 to 100 nM
- IC50 (human JAK3): 101 to 500 nM
- IC50 (human TYK2): 0.01 to 100 nM

Continued, values first:

- IC50 (human JAK1): 0.01 to 100 nM
- IC50 (human JAK3): 501 to 1000 nM
- IC50 (human TYK2): 0.01 to 100 nM
- IC50 [1, 2]: 1 to 500 nM
Structure (SMILES): CCc1cc(C2=CCN(C(=O)C(C)OC)CC2)ccc1N(C)c1cc2c(cn1)ncn2C (stereo not shown) [Compound 250, 1-(4-(3-ethyl-4-(methyl(1-methyl-1H-imidazo[4,5-c]pyridin-6-yl)amino)phenyl)-5,6-dihydropyridin-1(2H)-yl)-2-methoxypropan-1-one]

- IC50 (human JAK1): 0.01 to 100 nM
- IC50 (human JAK3): 0.01 to 100 nM
- IC50 (human TYK2): 0.01 to 100 nM
- IC50 [1, 3]: 1 to 500 nM
Structure (SMILES): CN(c1cc2c(cn1)ncn2C)c1ccc(C2CCN(S(C)(=O)=O)CC2)cc1OC(F)F [Compound 287, N-(2-(Difluoromethoxy)-4-(1-(methylsulfonyl)piperidin-4-yl)phenyl)-N,1-dimethyl-1H-imidazo[4,5-c]pyridin-6-amine]

- IC50 (human JAK1): 0.01 to 100 nM
- IC50 (human JAK3): > 1000 nM
- IC50 (human TYK2): 101 to 500 nM
- IC50 [1, 2]: > 1000 nM
Structure (SMILES): CCc1cc(-c2cnc(OC3COC3)nc2)ccc1N(C)c1cc2c(cn1)ncn2C [Compound 212, N-(2-Ethyl-4-(2-(oxetan-3-yloxy)pyrimidin-5-yl)phenyl)-N,1-dimethyl-1H-imidazo[4,5-c]pyridin-6-amine]

- IC50 (human JAK1): 0.01 to 100 nM
- IC50 (human JAK3): 101 to 500 nM
- IC50 (human TYK2): 0.01 to 100 nM
- IC50 [1, 2]: 1 to 500 nM
Structure (SMILES): CCc1cc(-c2cnn(Cc3ccc(OC)cc3)c2)ccc1N(C)c1cc2c(cn1)ncn2C [Compound 208, N-(2-ethyl-4-(1-(4-methoxybenzyl)-1H-pyrazol-4-yl)phenyl)-N,1-dimethyl-1H-imidazo[4,5-c]pyridin-6-amine]

- IC50 (human JAK1): 0.01 to 100 nM
- IC50 (human JAK3): 101 to 500 nM
- IC50 (human TYK2): 0.01 to 100 nM
- IC50 [1, 2]: 1 to 500 nM
Structure (SMILES): CCC(=O)N1CC=C(c2ccc(N(C)c3cc4c(cn3)ncn4C)c(CC)c2)CC1 [Compound 158, 1-(4-(3-ethyl-4-(methyl(1-methyl-1H-imidazo[4,5-c]pyridin-6-yl)amino)phenyl)-5,6-dihydropyridin-1(2H)-yl)propan-1-one]

- IC50 (human JAK1): 0.01 to 100 nM
- IC50 (human JAK3): 101 to 500 nM
- IC50 (human TYK2): 0.01 to 100 nM
- IC50 [1, 2]: 501 to 1000 nM
Structure (SMILES): CCc1cc(-c2cnn(CC(=O)N(C)C)c2)ccc1N(C)c1cc2c(cn1)ncn2C [Compound 220, 2-(4-(3-ethyl-4-(methyl(1-methyl-1H-imidazo[4,5-c]pyridin-6-yl)amino)phenyl)-1H-pyrazol-1-yl)-N,N-dimethylacetamide]

- IC50 (human JAK1): 0.01 to 100 nM
- IC50 (human JAK3): 101 to 500 nM
- IC50 (human TYK2): 0.01 to 100 nM
- IC50 [1, 2]: > 1000 nM
Structure (SMILES): CCc1cc(CNCC#N)ccc1N(C)c1cc2c(cn1)ncn2C [Compound 149, 2-(3-ethyl-4-(methyl(1-methyl-1H-imidazo[4,5-c]pyridin-6-yl)amino)benzylamino) acetonitrile]

- IC50 [1, 2]: > 1000 nM
Structure (SMILES): CCc1cc(CNC(=O)OC(C)(C)C)ccc1N(C)c1cc2c(cn1)ncn2C [Compound 252, tert-Butyl 3-ethyl-4-(methyl(1-methyl-1H-imidazo[4,5-c]pyridin-6-yl)amino)benzylcarbamate]

- IC50 (human JAK1): 501 to 1000 nM
- IC50 (human JAK2): > 1000 nM
- IC50 (human JAK3): > 1000 nM
- IC50 (human TYK2): > 1000 nM
Structure (SMILES): CN(c1cc2c(cn1)ncn2C)c1ccc(C2CN(C(=O)N3CCC3)C2)cc1OC(F)F [Compound 366, Azetidin-1-yl-(3-{3-difluoromethoxy-4-[methyl-(1-methyl-1H-imidazo[4,5-c]pyridin-6-yl)-amino]-phenyl}-azetidin-1-yl)-methanone]

- IC50 (human JAK1): 101 to 500 nM
- IC50 (human JAK2): > 1000 nM
- IC50 (human JAK3): > 1000 nM
- IC50 (human TYK2): > 1000 nM
Structure (SMILES): CCc1cc(CC(=O)N2CC(C)(C)C2)ccc1N(C)c1cc2c(cn1)ncn2C [Compound 386, 1-(3,3-Dimethyl-azetidin-1-yl)-2-{3-ethyl-4-[methyl-(1-methyl-1H-imidazo[4,5-c]pyridin-6-yl)-amino]-phenyl}-ethanone]
